{"source": "patent US6159953A", "about": "“Anti-malarial composition and method of use” (Catholic University of America, priority 1992, dated 2000)", "tested_on": "P. yoelii", "test": "Anti-malarial activity in P. yoelii-infected mice", "format": "in vivo, P. yoelii in Swiss white mice", "method": "FIG. 4 illustrates the effect of 5-fluoro-orotate treatment on blood parasitemia. Mice infected with P. yoelii on day 0 in experiments 1 and 2 were treated with (A) 0.2 mg/kg 5-fluoro-orotate, (B) 1 mg/kg, or (C) 5 mg/kg every 4 hours for three days. Control mice (.largecircle., .circle-solid., respectively), received no drug. Open symbols represent treatment without uridine (experiment 1: .smallcircle., .quadrature., .diamond., Δ), and filled symbols represent animals also treated with uridine (experiment 2: .circle-solid., .box-solid., .diamond-solid., .tangle-solidup.). Animals were treated with 5-fluoro-orotate on days 3 to 6. Animals were also treated with uridine in experiment 2 on days 3 to 9.\nFIG. 5 illustrates the survival rate of mice infected with P. yoelii and treated with 5-fluoro-orotate, alone or in combination with uridine. Mice were treated with (A) 0.2 mg/kg 5-fluoro-orotate, (B) 1 mg/kg, or (C) 5 mg/kg. Control mice received no 5-fluoro-orotate (.largecircle., .circle-solid., respectively). Open symbols represent treatment without uridine (experiment 1: .largecircle., .quadrature., .diamond., Δ), and closed symbols represent animals also receiving uridine (experiment 2: .circle-solid., .box-solid., .diamond-solid., .tangle-solidup.).\nA second in vivo test system can be used to determine if repeated administration of the pyrimidine analogue would have safe anti-malarial activity. In this test system, groups of animals are infected with malaria parasites. At a time when blood parasitemia is reached, the animals are injected with saline alone (control) or with various concentrations of one or more pyrimidine analogues alone or together with one or more rescuing pyrimidine bases or nucleosides at a single concentration, at intervals, over a period of several days. In order to determine the prophylactic effectiveness of the rescuing pyrimidine base or nucleoside, the animals are pretreated with such a base or nucleoside prior to the administration of the pyrimidine analogue. Anti-malarial activity of the treatments is estimated by determining blood parasitemia on the animals at appropriate times. The safety of the treatments is estimated by monitoring animals for weight loss and diarrhea, as these are early symptoms of pyrimidine analogue toxicity [Houghton, J. A., et al., Cancer Res., 39:2406-13 (1979)].\nSwiss white mice (25-30 g) were divided into groups of five. On day 0, each mouse was infected by intraperitoneal injection of 10^5 erythrocytic forms of P. yoelii. Starting on day 3, when the blood parasitemia had reached between 5 and 12%, the mice were injected intraperitoneally every 4 hours for three consecutive days with 200 μl of various formulations. […]", "data": [{"smiles": "O=C(O)c1[nH]c(=O)[nH]c(=O)c1F", "note": "[5-fluoro-orotate]", "values": [{"measurement": "time to return of parasitemia after end of treatment", "setting": "0.2 mg/kg, treatment stopped day 6", "result": "≤ 24", "unit": "h"}, {"measurement": "transient parasitemia after rechallenge", "setting": "10^6 P. yoelii parasites, days 2 to 4, 0.2 mg/kg group", "result": "less than 0.05%"}, {"measurement": "time to resolution of second surge of parasitemia", "setting": "low doses (0.2 and 1 mg/kg), no additional drug", "result": "≤ 14", "unit": "days"}]}]}
